The results in this text go back to patent publication US7919525B2, “Radiation protection by gamma-tocotrienol” (priority 2003, dated 2011).

What all share (type): in vivo
Assay [1] has as its system CD2F1 male mice. Briefly: 30-day survival of mice injected s.c. before lethal Cobalt-60 irradiation. The note with it: for protective efficacy at higher radiation dose (in words): 11 Gy; for survival at 30 days after irradiation: s.c. injection 20-24 hours before irradiation. On the procedure:
CD2F1 male mice, 6-8 weeks old (approximately 25 g), procured from Jackson Labs were used throughout this study and were kept in rooms maintained at 21±0.5° C. Animals on arrival were maintained in quarantine for 10 days during which time serological testing was done for contamination by pathogens. All animals were provided with pellet diet and water ad lib.
A preparation of γ-tocotrienol in a final volume of 1 ml was made by mixing 0.11 ml of γ-tocotrienol with 0.85 ml PEG-400 (polyethylene glycol-400) and 0.05 ml of vital-E-placebo, a solubilizing agent (Schering-Plough). 1 ml of the preparation is sufficient for 8 mice. Final concentration of γ-tocotrienol is 100 mg/ml. Vehicle for injection into control animals was prepared exactly as for γ-tocotrienol except that 0.11 ml of olive oil was used instead of γ-tocotrienol.
(§1) Each animal was injected subcutaneously (at the nape of the neck) with 0.1 ml of either γ-tocotrienol or vehicle preparation. Injections were done 20-24 hours before irradiation.
(§2) Animals were placed in well-ventilated Lucite boxes (8 animals in a compartmentalized box) and irradiated in a Cobalt-60 facility at a radiation dose rate of 0.6 Gy/min for a total radiation dose of 10.5 and 11 Gy. The radiation dose used is a super lethal dose. The LD50/30 radiation dose for this strain of mice is 8.9 Gy with the vehicle alone. The radiation dose and dose rate were the same that had been used for α-tocopherol studies.
(§3) After radiation, mice were returned to their original cages with free access to food and water. Mice were weighed and monitored for survivors everyday for 30 days. Percentages of survivors at the end of 30 days are used as a measure of the efficacy of γ-tocotrienol in protecting from radiation damage.

Assay [2] concerns CD2F1 male mice. Briefly: Body weight of mice after irradiation at 10.5 Gy. The note with it: 0.6 Gy per minute, s.c. On the procedure:
as §1, §2, §3
Among the different treatment groups, the untreated mice (Untr, Irrad) and the mice treated with vehicle (Vehicle) started to loose weight again from around day 9 and died by day 15.

For assay [3], the system named is CD2F1 male mice. Briefly: 30-day survival of mice given succinate ester orally before Cobalt-60 irradiation. The note with it: 9.5 Gy Cobalt-60, 0.6 Gy/min; oral 0.1 ml of 200 unit/ml 20-24 hours before irradiation. On the procedure: as §3
0.5 g TS (Sigma, 1210 units/g) was sonicated with 2.85 ml PEG-400 (polyethylene glycol-400) and 0.15 ml of vital-E-placebo, a solubilizing agent (Schering-Plough). The final concentration of TS in the prepared solution is 200 units/ml. At a dose of 800 unit/kg, 1 ml of the prepared solution as described above is sufficient for 8 mice. Vehicle for injection into control mice was prepared exactly as for TS except that 0.5 ml of olive oil was used instead of TS.
Each animal was orally administered 0.1 ml of TS solution (200 unit/ml) or vehicle by using feeding needles with a blobbed head. All administrations were done 20-24 hours before irradiation.
Animals were then placed in well-ventilated Lucite boxes (eight animals in a compartmentalized box) and irradiated in a Cobalt-60 facility at a radiation dose rate of 0.6 Gy/min for total radiation doses of 9, 9.5, and 10 Gy. The radiation doses 9.5 and 10 Gy used are lethal doses. […]
The efficacy of α-tocopherol succinate in protecting from radiation damage is monitored as described in Example 4. […]

Setting [4] is: experiment 1, 10.5 Gy Cobalt-60, 0.6 Gy/min, 8 mice.
Where [5] appears, read: experiment 2, 10.5 Gy Cobalt-60, 0.6 Gy/min, 8 mice.

On to γ-tocotrienol, for which, in assay [1] (10.5 Gy, both experiments), the “protection higher than with α-tocopherol” value is reported as 25%. The “survival after irradiation, both experiments together” value in assay [1] (10.5 Gy, given before irradiation) is on record as 75%-100. Besides, the “protective efficacy at higher radiation dose (in words)” value in assay [1] is on record as “better radioprotectant than α-tocopherol”. Moreover, the “survival at 30 days after irradiation” value amounted to 40% in assay [1] (11 Gy Cobalt-60, 0.6 Gy/min); 100% in assay [1] (setting [4]); 75% in assay [1] (setting [5]). Also, the “body weight course after irradiation (in words)” value in assay [2] was “continued to gain weight and did not die from the irradiation”.
Regarding `Cc1c(C)c2c(c(C)c1O)CC[C@@](C)(CCC[C@H](C)CCC[C@H](C)CCCC(C)C)O2` [α-tocopherol, reference compound], the “protection less than that of γ-tocotrienol” value in assay [1] (10.5 Gy) was 25%. Further, in assay [1], the “protective efficacy at higher radiation dose (in words)” value is listed as “not effective”. Moreover, the “survival at 30 days after irradiation” value in assay [1] (11 Gy Cobalt-60, 0.6 Gy/min) is “no survivors”; in assay [1] (setting [4]), 75%; in assay [1] (setting [5]), 50%.
Turning to `Cc1c(C)c2c(c(C)c1OC(=O)CCC(=O)O)CC[C@@](C)(CCC[C@H](C)CCC[C@H](C)CCCC(C)C)O2` [α-tocopherol succinate], in assay [3], the “survival at 30 days after irradiation” value is 60%.
